Measured values published in US6911432B2, “Drugs, foods or drinks with the use of algae-derived physiologically active substances” (priority 1997, dated 2005).

Columns and labels:
[1] = test system: Mouse melanoma cell B16BL6; experiment: inhibition of melanin production, absorbance at 400 nm; type: cell-based
Description: Mouse melanoma cell B16BL6 suspended in RPMI-1640 containing 10% FBS was placed in a 6 well plate at a concentration of 5×10^4 cells/2 ml medium/well and incubated at 37° C. On the 2nd day, 100 μl of agarobiose solution (2 mg/ml to 0.2 mg/ml) was added thereto, and on the 7th day, the medium was changed and, at the same time, 100 μl of agarobiose solution (2 mg/ml to 0.2 mg/ml) was added thereto. On the 8th day, the cells were collected, DNA, RNA and protein were decomposed, and then the absorbance at 400 nm was measured to examine an activity of inhibiting melanin production.
Namely, after removing the medium by suction, 0.3 ml of 0.25% trypsin dissolved in 20 mM EDTA solution was added to each well and the plate was incubated at 37° C. for 10 minutes. Then, 2 ml of the fresh medium was added to the well and the cells were suspended. The suspension was collected into a test tube. The medium was then removed by centrifugation and the cells were suspended in 2 ml of PBS and centrifuged again. After removing the supernatant, 30 μl of 50 mM sodium acetate buffer (pH 5.0) containing 5 mM manganese chloride and 1 μl of 70,000 U/ml DNase I (manufactured by Takara Shuzo) were added to the cells and thoroughly mixed. The mixture was incubated at 37° C. for 2 hours to decompose DNA. Then, 1 μl of 10 mg/ml ribonuclease A (manufactured by Sigma) was added to the mixture and the resultant mixture was incubated at 50° C. for 1 hour to decompose RNA. Finally, 100 mM Tris-hydrochloric acid buffer (pH 7.8) containing 100 μg/ml proteinase K (manufactured by Sigma), 0.1% Triton x and 10 mM EDTA was added thereto to make the total volume up to 200 μl for 2×10^6 cells, and the mixture was incubated at 37° C. for 16 hours and then the absorbance at 400 nm was measured.

RAW 264.7 cells = experiment: NO production induced by LPS, NO2- concentration in medium; type: cell-based, mouse; settings: RAW 264.7; 10 μl of 5000 to 50 μM solution per 500 μl well; 12 hours
Description: (1) RAW 264.7 cells (ATCC TIB 71) were suspended in phenol red-free Dulbecco's modified Eagle's medium containing 10% fetal bovine serum (manufactured by Gibco) and 2 mM L-glutamine (manufactured by Life Technologies Oriental, 25030-149) at a concentration of 3×10^5 cells/ml, and 500 μl portions thereof were seeded to respective wells of a 48-well microtiter plate and incubated at 37° C. for 12 hours in the presence of 5% CO2. To each well were added 10 μl of 25 μg/ml lipopolysaccharide (LPS, manufactured by Sigma, L-2012) and 10 μl of aqueous 5000, 1500, 500, 150 or 50 μM agarobiose or neoagarobiose (manufactured by Sigma, G4410) solution, and the plate was incubated for additional 12 hours. Then, concentration of NO2^− produced by oxidation of NO in the medium was measured. As control groups, a group to which LPS was not added and a group to which agarobiose or neoagarobiose was not added were provided.
After incubating as described above, 100 μl of 4% Greece reagent (manufactured by Sigma, G4410) was added to 100 μl of the medium, and the mixture was allowed to stand for 15 minutes at room temperature. Then, the absorbance at 490 nm was measured. NO2^− concentration in the medium was calculated with reference to a calibration curve prepared by using NaNO2 at given concentrations dissolved in the same medium as that described above. All the measurements were carried out in triplicate.
(2) A suspension of 5 g of commercially available agar (Ina agar type S-7, manufactured by Ina Shokuhin Kogyo) in 45 ml of 0.1 N HCl was treated at 95° C. for 13 minutes. After cooling to room temperature, the suspension was neutralized with NaOH and filtered through 0.22 μm MILLEX-GP filter (manufactured by Milipore, SLGPR25LS). […] Namely, 10 μl of 25 μg/ml LPS and 10 μl of a 20-fold dilution of the sample mentioned above were added to wells of a 48 well microtiter plate containing RAW264.7 cells which had been incubated in the wells. The measurement was carried out with the culture medium. As control groups, a group to which LPS was not added, a group to which a sample was not added and a group to which 2.5 mM citric acid was added were provided. All the measurement were carried out in duplicate.

HL-60 cells = experiment: viable cell count with Trypan Blue under a microscope; type: cell-based, human; settings: final concentration 250 μM or 125 μM; for number of viable cells as compared with the group to which water was added: 24 hours or 48 hours
Description: Agarobiose, agarotetraose, agarohexaose and agarooctaose (hereinafter, sometimes, these oligosuccharaides are referred to as agarooligosaccharides) obtained in Example 5 were dissolved in water at a concentration of 2.5 mM or 1.25 mM separately, and were sterilized by filtration. HL-60 cells were suspended in RPMI 1640 medium containing 10% fetal bovine serum at a concentration of 2.5×10^5 cells/4.5 ml and to this suspension was added 0.5 ml of each of the oligosaccharide solutions. The resultant mixture were incubated with 5% CO2 at 37° C. for 24 hours or 48 hours. A part of the cell culture was taken up, followed by addition of Trypan Blue thereto and observing under a microscope to count the number of viable cells.
That is, FIG. 14 illustrates the relation between the incubation time and the number of viable cells when HL-60 cells were cultured with addition of one of the oligosaccharides at the final concentration of 250 μM. FIG. 15 illustrates the relation between the incubation time and the number of viable cells when HL-60 cells were cultured with addition of one of the oligosaccharides at the final concentration of 125 μM. In FIGS. 14 and 15, the horizontal axes represent the incubation time (hrs.) and the vertical axes represent the number of viable cells (× 10^5/5 ml). The closed circle (●) represents the addition of water (control), the open diamond (⋄) represents the addition of agarobiose, the open circle (◯) represents the addition of agarotetraose, the open triangle (Δ) represents the addition of agarohexaose and the open square (□) represents the addition of agarooctaose.

Structure (SMILES) | Absorbance at 400 nm mean ([1]; agarobiose 10 μg/ml) | Absorbance at 400 nm mean ([1]; agarobiose 50 μg/ml) | Absorbance at 400 nm mean ([1]; agarobiose 100 μg/ml) | activity of inhibiting melanin production (in words) ([1]; agarobiose at 50 and 100 μg/ml) | inhibition of NO production induced by LPS (in words) (RAW 264.7 cells) | apoptosis corpuscles (HL-60 cells) | number of viable cells as compared with the group to which water was added (HL-60 cells)
OC[C@H]1O[C@@H](O[C@H]2[C@H]3OC[C@@H]2OC(O)[C@H]3O)[C@H](O)[C@@H](O)[C@H]1O (mixture of isomers) [Agarobiose, agarobiose] | 0.521 | 0.392 | 0.383 | recognized | dose-dependently inhibited | apoptosis corpuscles were observed | decreased
OC[C@H]1O[C@@H](O[C@H]2[C@H]3OC[C@@H]2O[C@@H](O[C@H]2[C@@H](O)[C@@H](CO)O[C@@H](O[C@H]4[C@H]5OC[C@@H]4OC(O)[C@H]5O)[C@@H]2O)[C@H]3O)[C@H](O)[C@@H](O)[C@H]1O (stereo partly drawn) [Agarotetraose, agarotetraose] |  |  |  |  |  | apoptosis corpuscles were observed | decreased
